From patent publication US20250268980A1, “AN ANTICANCER THERAPY TARGETING RAS AND OTHER ONCOGENIC SIGNALS BY INHIBITION OF DYNAMIC BLEBBING AND/OR SEPTINS” (THE BOARD OF REGENTS OF THE UNIVERSITY OF TEXAS SYSTEM, priority 2022, published 2025)

Tested on: cortical septin structures in MV3 cells
Assay: Cortical septin localization (SEPT6-GFP) in MV3 cells
Assay type: cell-based, human
Conditions: MV3 SEPT6-GFP; WGA (50 ug/ml), VitroGel, H1152 (1 μM), NSC668394 (10 μM)
Protocol: Cells Embedded in 3D Collagen.
Cells Grown in VitroGel Coffins. VitroGel coffins were prepared by embedding MV3 or A375 cells in VitroGel 3D or RGD at 1:1 dilution according to manufacturer's instructions (TheWell Biosciences, sku #TWG001). […] A 1:1 solution of VitroGel and VitroGel Dilution Solution was made and added to cell suspension at a ratio of 4:1 (VitroGel: cells) using gentle pipetting until well-mixed (with care taken not to form bubbles). Cell/VitroGel solution was transferred to an 8-well uncoated ibidi μ-slide (ibidi cat #80821) at 100 μl/well, spread over the bottom of wells with a pipette tip, and allowed to polymerize at room temperature for 15 minutes. The remainder of the well was then filled with 10% FBS DMEM and slide was stored at 37° C. and 5% CO2 for either 24 hrs for viability assays, 3 hrs for ERK activity assays, or 1 hour for visualization of septins/PI3K activity.
3D Light-Sheet Imaging. […] All images were saved in the OME-TIFF format.
3D Cell Image Analysis. Cell morphology and septin localization were analyzed principally via u-shape3D similar to the protocol described in Driscoll et al. Nature Methods. 16, 1037-1044 (2019), the disclosure of which is incorporated herein in its entirety. Briefly, 3D images were first deconvolved using either a Richardson-Lucy or Wiener algorithm with an experimentally measured point spread function. […] Cell surfaces were then represented as triangle meshes, and the mean surface curvature at every triangle was calculated according to methods described in Driscoll et al. Nature Methods. […] Septin and NRAS localization was measured from fluorescence images by extending a sphere of either 1 μm (for septins) or 2 μm (for NRAS) about each mesh triangle and mapping to the triangle the average intensity both within that sphere and the cell. Image intensity was not depth normalized prior to analysis, but was instead measured from the raw, undeconvolved image. […]
Cortical septin levels were quantified by measuring the mean cytoplasmic intensity of each cell using hand-drawn ROIs that excluded nuclei (performed with the FIJI ImageJ package), and then calculating for each cell its fraction of cortical voxels (intracellular voxels within 0.96 μm of the u-Shape3D-derived surface) that were higher than that cell's mean cytoplasmic intensity (performed using a MATLAB script). NRAS enrichment at the surface was quantified by first calculating the total amount of intracellular signal expected to be within 0.96 μm of the surface if the cell's signal was homogenously distributed between all voxels, and then calculating the percent change between this value and the observed value for each cell. […]

## Cc1cncc2cccc(S(=O)(=O)N3CCCNC[C@@H]3C)c12 [H1152]
  septin localization (cortical levels): pronounced effects on septin localization, reducing cortical levels
